# Structures can show the parent of a compound that is named as a salt. Where two headings read alike, the source gives them in different places.
# Experiments:
# [1] = tested on: primary mouse cortical neuron cells; test: Autophagic vesicle formation (CYTO-ID Autophagy Detection Kit); type: cell-based; conditions: for Cyto-ID fluorescence value (relative intensity): 5 μM, 24 hours, untreated control = 1; for Autophagic vesicle formation compared to rapamycin (in words): at ½ concentration of rapamycin (5 μM vs 10 μM)
# Procedure: Autophagy lysosomal pathway (ALP) activation by the compounds of the present invention was verified, through measuring the degree of autophagic vesicle formation in neuron cells with the CYTO-ID™ Autophagy Detection Kit (ENZ-51031-K200, Enzo Life Sciences, Inc.). Neuron cells (i.e., primary mouse cortical neuron cells) were isolated from mice using an enzymatic digest method. Specifically, primary mouse cortical neuron cells were isolated by incubating the cortice tissues derived from 16 day embryonic C57BL6 mice, at 37° C. for 30 minutes, with 20 U/ml papain (Worthington Biochemical Corporation, LK003176) and 0.005% DNase I (Worthington Biochemical Corporation, LK003170).
# The primary mouse cortical neuron cells (8×10^4 cells) and a medium (a neural cell culture media containing 2 mM L-glutamine (Gibco, 25030-081), N2 supplement (Gibco, 17502-048), B27 supplement (Gibco, 17504-044), and 50 μg/ml penicillin-streptomycin (Gibco, 15140-122)) were added to each well of a 96-well plate and then incubated overnight at 37° C. in a CO2 incubator. The compound of Example 10 (5 μM), the compound of Example 29 (5 μM), and rapamycin (10 μM) were respectively treated to the cells, which were incubated at 37° C. in a CO2 incubator for 24 hours. After each well was washed with 1×Assay Buffer (Enzo Life Science, ENZ-51031-K200), 0.2 μl of Cyto-ID autophagy dye and 0.1 μl of Hoechst 33342 were treated to the cells, which were incubated at 37° C. in a CO2 incubator for 30 minutes. After each well was washed with 1×Assay Buffer (Enzo Life Science, ENZ-51031-K200), the fluorescence values of Cyto-ID (EX: 480 nm, EM: 530 nm) and Hoechst 33342 (EX: 340 nm, EM: 480 nm) were respectively measured with a fluorometer. Three wells were tested for each group. After normalization was carried out through dividing the Cyto-ID fluorescence value of each well by Hoechst 33342 fluorescence value, each relative intensity was calculated by setting that of the untreated control to 1.
# [2] = tested on: N2a cells; test: Autophagy flux by electron microscope imaging; type: cell-based, mouse
# Procedure: N2a cells (ATCC, CCL-131, mouse neuroblastoma cell line) (3×10^4 cells) and a medium (DMEM (Dulbecco's modified Eagle's medium, Gibco, 11995-065) supplemented with 5% heat-inactivated fetal bovine serum, FBS; Gibco, 16000-044) and 50 μg/ml penicillin-streptomycin (Gibco, 15140-122) were added to each well of a 6-well plate and incubated overnight at 37° C. in a CO2 incubator. The compound of Example 29 (5 μM) and rapamycin (10 μM) were respectively treated and then incubated at 37° C. in a CO2 incubator for 24 hours. Three wells per each group were subject to electron microscope block formation and then pre-fixation, post-fixation, dehydration, substitution, and embedding were carried out according to a flat-embedding method. After ultra-thin sections having a thickness of 70 nm were prepared, heavy metal staining (uranyl acetate, lead citrate) was carried out on the each section, which was photographed through a mosaic imaging technique for imaging the entire cells. In addition, the results obtained by measuring the numbers of the total autophagies (autophagic vesicles), autophagosomes, and autolysosomes per cell according to the treatment groups are shown in Table 3 below. In Table 3 below, the control means the untreated control.
# [3] = tested on: dimethylnitrosamine (DMN)-induced liver injury male SD rats; test: Liver function-improving activities by oral administration in the liver injury model (2); type: in vivo, rat
# Procedure: Specifically, 7-week-old male SD rats (Orient Bio, Korea) were accommodated to the laboratory environment at room temperature for 7 days. General symptoms were observed and then only healthy animals were used for the experiment. The rats were divided into 5 groups (n=10 for each group), i.e., the normal control group, the group to which only DMN is administered, and the group to which both the compound of the present invention (the compound of Example 23, 26, or 29) and DMN are administered. DMN was dissolved in purified water and then administered intraperitoneally at the dose of 10 mg/kg for 3 consecutive days per week (3 times per week, for 4 weeks). Blood samples were collected after the completion of the fourth-week liver injury inducement and then the serum ALT (Alanine Transaminase) values and the serum AST (Aspartate Transaminase) values were measured so as to confirm the liver injury thereof. […] Blood samples were collected on Day 0 (1 day after the completion of the fourth-week liver injury inducement) and Day 7, 14, 21 and 28 after the administration of the test materials. The collected blood was injected into a vacutainer tube containing a clot activator and then allowed to stand at room temperature for about 20 minutes so as to coagulate each blood sample. After centrifugation for 10 minutes, the resulting serums were subjected to blood-biochemical tests. In addition, at 24 hours after the last administration, an autopsy for hepatectomy and fixation was performed to prepare the tissue specimens thereof. After preparing the slides with the tissue specimens, hematoxylin and eosin (H&E) staining was performed thereon for microscopic observation of damages to liver tissue and inflammatory cell infiltrations in liver tissues. In addition, Masson's trichrome staining was also performed thereon for microscopic observation of collagen fiber depositions in liver tissues. The results obtained from the measurements were subject to group comparison, through parametric multiple comparisons or non-parametric multiple comparisons, with SPSS. When P<0.05, it was determined to be statistically significant. […] Therefore, it can be confirmed that the compounds of the present invention have excellent treating activity against liver fibrosis. […] From the results of FIG. 4, the degrees of damage to liver tissue and inflammatory cell infiltration in liver tissues were measured. And also, from the results of FIG. 4, the degree of collagen fiber deposition in liver tissues was measured.
# [4] = tested on: N2a cells; test: Inhibitory activity against neuronal apoptosis by beta amyloid (CCK-8), N2a cells; type: cell-based, mouse; conditions: for viability at 5 µM: Mus musculus, N2a, read-out: Cell viability (%) (N2a cells); for Inhibition of cytotoxicity caused by beta amyloid treatment (in words): Table 9: N2a cells 5 μM and neuron cells 500 nM
# Procedure: (§1) The inhibitory activities of the compounds of the present invention against neuronal apoptosis by beta amyloid, known as the major cytotoxic substance in neurodegenerative diseases, were analyzed in N2a cells (ATCC, CCL-131, mouse neuroblastoma cell line) and neuron cells (primary mouse cortical neuron cells) isolated in the same manners as in Test Example 2. The media used in Test Example 3 and Test Example 2 were used as a medium for the N2a cells and as a medium for the neuron cells, respectively. Specifically, N2a cells (3×10^4 cells) and neuron cells (8×10^4 cells), along with the respective media, were added to each well of a 96-well plate and then incubated overnight at 37° C. in a CO2 incubator. The cells were treated with the compound of Example 10 and the compound of Example 29 at the concentrations of 5 μM and 500 nM, respectively, treated with 20 μM of beta amyloid after 30 minutes therefrom, and then incubated at 37° C. in a CO2 incubator for 72 hours. The cells were treated with 10 μL of CCK-8 reagent (Enzo Life Science, ALX-850-039-KI02) and then incubated at 37° C. in a CO2 incubator for 2 hours. Three wells were tested for each group and each absorbance was measured at 450 nm. The absorbance value of the untreated control group was set to 100% cell viability. The cell viability of each group was calculated from the respective absorbance values.
# [5] = tested on: primary mouse cortical neuron cells; test: Inhibitory activity against neuronal apoptosis by beta amyloid (CCK-8), neuron cells; type: cell-based; conditions: Cortical neurone, read-out: Cell viability (%) (Neuron cells)
# Procedure: as §1
# [6] = tested on: N2a cells; test: Inhibitory activities against mitochondrial damage by rotenone (XF Cell Mito Stress Test); type: cell-based, mouse; conditions: 5 μM + 10 μM rotenone
# Procedure: The inhibitory activities of the compounds of the present invention against mitochondrial damage by rotenone, known as the major cytotoxic substance in neurodegenerative diseases, were analyzed in N2a cells (ATCC, CCL-131, mouse neuroblastoma cell line). Specifically, N2a cells (3×10^4 cells) and a medium (DMEM (Dulbecco's modified Eagle's medium, Gibco, 11995-065) supplemented with 5% heat-inactivated fetal bovine serum (FBS; Gibco, 16000-044) and 50 μg/ml penicillin-streptomycin (Gibco, 15140-122) were added to each well of a XF24-well culture plate and then incubated overnight at 37° C. in a CO2 incubator. The cells were treated with the compound of Example 10 (5 μM), treated with 10 μM of rotenone after 30 minutes therefrom, and then incubated at 37° C. in a CO2 incubator for 24 hours. After the treatment with a XF Cell Mito Stress Test Kit (Seahorse Bioscience, 103015-100) according to the manufacturer's instructions, the level of mitochondrial respiration was measured, using an XF24 Extracellular Flux Analyzer (Seahorse Bioscience). Four wells were tested for each group; and the basal respiration, the ATP production, the maximal respiration, and the spare respiratory capacity were measured. The levels of each mitochondrial respiration were normalized by the protein quantification value. The basal respiration of the untreated control group was set to 100% and the remaining values are shown. In Table 10, the control group represents a group treated with only 10 μM of rotenone.
# [7] = 0 week (Day 0, after 4 weeks DMN, before administration)
# [8] = 1 week, 25 mg/kg oral once a day after 4 weeks DMN
# [9] = 2 weeks, 25 mg/kg oral once a day after 4 weeks DMN
# [10] = 3 weeks, 25 mg/kg oral once a day after 4 weeks DMN
# [11] = 4 weeks, 25 mg/kg oral once a day after 4 weeks DMN
# [12] = 24 hours, basal respiration of untreated control = 100%
smiles,measurement,setting,value
"CCN(CC)CCOc1ccc(-c2nc(C)c(C(=O)NCC3(N(C)C)CCOCC3)s2)cc1C#N.Cl.Cl [Example 29, N-((4-(dimethylamino)tetrahydro-2H-pyran-4-yl)methyl)-2-(4-(2-diethylamino)ethoxy-3-cyanophenyl)-4-methylthiazole-5-carboxamide hydrochloride]",Cyto-ID fluorescence value (relative intensity),[1],2.171
same,Autophagic vesicle formation compared to rapamycin (in words),[1],significantly increase autophagic vesicle formation
same,Numbers of the autophagy per cell: Autolysosome,"[2]; 5 μM, 24 hours",14.9
same,Numbers of the autophagy per cell: Autophagic vesicles,"[2]; 5 μM, 24 hours",22.3
same,Numbers of the autophagy per cell: Autophagosome,"[2]; 5 μM, 24 hours",6.9
same,Autophagic vesicle and autolysosome formation compared to rapamycin (in words),[2]; at ½ concentration of rapamycin (5 μM vs 10 μM),"significantly increase autophagic vesicle formation, especially autolysosome formation"
same,ALT values (average value),[3]; [7],219.29 U/L
same,AST values (average value),[3]; [7],376.67 U/L
same,ALT values (average value),[3]; [8],99.31 U/L
same,AST values (average value),[3]; [8],164.60 U/L
same,ALT values (average value),[3]; [9],66.57 U/L
same,AST values (average value),[3]; [9],143.87 U/L
same,ALT values (average value),[3]; [10],53.03 U/L
same,AST values (average value),[3]; [10],127.65 U/L
same,ALT values (average value),[3]; [11],52.97 U/L
same,AST values (average value),[3]; [11],123.33 U/L
same,viability at 5 µM,[4]; 72 h,68.5%
same,Inhibition of cytotoxicity caused by beta amyloid treatment (in words),[4],significantly inhibit the cytotoxicity caused by beta amyloid treatment
same,viability at 0.5 µM,[5]; 72 h,53.3%
"Cc1nc(-c2ccc(OCC(C)C)c(C#N)c2)sc1C(=O)NCC1(N(C)C)CCOCC1 [Example 10, N-((4-(dimethylamino)tetrahydro-2H-pyran-4-yl)methyl)-2-(3-cyano-4-isobutoxyphenyl)-4-methylthiazole-5-carboxamide hydrochloride]",Cyto-ID fluorescence value (relative intensity),[1],1.813
same,Autophagic vesicle formation compared to rapamycin (in words),[1],significantly increase autophagic vesicle formation
same,viability at 5 µM,"[4]; 5 μM, 20 μM beta amyloid, 72 hours, untreated control = 100%",68.9%
same,Inhibition of cytotoxicity caused by beta amyloid treatment (in words),[4],significantly inhibit the cytotoxicity caused by beta amyloid treatment
same,viability at 0.5 µM,"[5]; 500 nM, 20 μM beta amyloid, 72 hours, untreated control = 100%",52.2%
same,Recovery of mitochondrial damage by rotenone treatment (in words),[6],recovers the mitochondrial damage by rotenone treatment in a statistically significant level
same,Mitochondrial respiration (%): ATP production,[6]; [12],31.65%
same,Mitochondrial respiration (%): Basal,[6]; [12],51.69%
same,Mitochondrial respiration (%): Maximal,[6]; [12],62.28%
same,Mitochondrial respiration (%): Spare,[6]; [12],16.33%

# From patent publication US12503451B2, “2-arylthiazole derivative or salt thereof, preparation method therefor, and pharmaceutical composition comprising same” (HEXAPHARMATEC CO., LTD., priority 2020, dated 2025)
